# Source: patent publication US8124655B2, “Use of LR-90 and LR-102 to overcome insulin resistance” (City of Hope, priority 2007, dated 2012)
# Legend:
# [1] = test system: Zucker diabetic fatty (ZDF) rat; assay: Metabolic parameters of ZDF rats treated with LR-90 (Example 1); assay type: in vivo
# Procedure: As noted, previous studies have shown that LR-90, a new inhibitor of AGE formation, prevented the development of experimental type 1 diabetic nephropathy. In the present Example, the effects of LR-90 were examined in the Zucker diabetic fatty (ZDF) rat, a model of type 2 diabetes and metabolic syndrome, and the mechanisms by which it may protect against renal injury were investigated. In this Example, male ZDF rats were treated without or with LR-90 from age 13 to 40 weeks. Metabolic and kidney functions and renal histology were evaluated. AGE accumulation and the production of the receptor for AGE (AGER) were measured. Profibrotic growth factors, extracellular matrix proteins and intracellular signalling pathways associated with glomerular and tubular damage were also analysed. […] RenalAGE, AGER and lipid peroxidation were all attenuated by LR-90. […] This was associated with reduction in glomerulosclerosis and tubulointerstitial fibrosis, concomitant with marked inhibition of renal overproduction of TGF-β1, connective tissue growth factor, fibronectin and collagen IV.
# All animal studies were carried out in compliance with policies outlined in The Guide for the Care and Handling of Laboratory Animals (NIH Publication No. 85-23) that have been approved by the City of Hope Animal Care Committee. Male ZDF (fa/fa) and male Zucker lean (+/+; ZL) rats were obtained at the age of 5 weeks from Charles River Laboratories (Wilmington, Mass., USA). Animals were maintained with free access to Purina 5008 rat chow (Purina Mills, St Louis, Mo., USA) and tap water. All animals were individually housed in a controlled room with a 12 h dark-light cycle. At the age of 13 weeks, the animals were divided into the following groups: (1) ZL rats (n=6); (2) ZDF rats without treatment (n=6); and (3) ZDF rats treated with LR-90 at 50 mg/l in their drinking water (ZDF90, n=6). The dose of LR-90 was chosen after previous experiments with type 1 diabetic nephropathy. Food, water intake, body weight and blood glucose levels were monitored periodically. Systolic blood pressure was measured by tail-cuff plethysmography (CODA2 Blood Pressure System; Kent Scientific, Torrington, Conn., USA). Animals were killed at the age of 40 weeks by over-anaesthetisation with isoflurane and cardiac puncture. Blood samples were collected from each animal and transferred accordingly into heparinised vacutainer tubes; they were later centrifuged (1,500×g for 10 min at 4° C.) for plasma isolation. The kidneys were removed immediately, rinsed in PBS and weighed, after which specimens were snap-frozen in liquid nitrogen or fixed in 10% (vol./vol.) neutral buffered formalin for further biochemical and histological analyses. Plasma glucose, lipids and Nε-(carboxymethyl)lysine-AGE Plasma glucose was measured using a glucose analyzer (2300 STAT; YSI, Yellowsprings, Ohio, USA). Total plasma triacylglycerol and cholesterol concentrations were quantified using the Vitros 250 Chemistry System (Johnson & Johnson, Rochester, N.Y., USA). Nε-(Carboxymethyl)lysine (CML)-AGE was liberated from plasma proteins by acid hydrolysis and then measured by ion-pair reversed-phase liquid chromatography/tandem mass spectrometry as described previously.
# [2] = test system: p38 MAPK, p44/42 MAPK, p65 subunit of NF-κB; assay: Renal MAPKs and NF-κB activation by western blot; assay type: in vivo, rat
# Procedure: Renal cortical tissues were homogenised in PBS buffer with 1% (vol./vol.) Nonidet P-40, 0.5% (wt/vol.) sodium deoxycholate, 0.1% (wt/vol.) SDS and protease inhibitor mixture (Roche, Indianapolis, Ind., USA). Homogenates were centrifuged for 15 min at 4° C. and at 12,000 rpm and the supernatant fractions collected and stored at −70° C. Nuclear extracts were prepared as described previously. Protein concentrations were measured using the Bio-Rad DC Assay kit. Total RNA was isolated using the RNA-STAT-60 reagent (Tel-Test, Friendswood, Tex., USA). Western blot assay Protein samples (50 μg) were separated on 10 to 20% gradient Tris-glycine Criterion gels (Bio-Rad) and then transferred to nitrocellulose membranes. The membranes were blocked with 5% (wt/vol.) skimmed milk in PBS before incubation with anti-TGF-β1, anti-CTGF, anti-AGER, anti-phospho-p38 MAPK, anti-phospho-p44/42 MAPK and anti-p65 NF-κB antibodies. Immunoreactive proteins were detected by enhanced chemiluminescence (Western Lightning Chemiluminescence Reagent; Perkin-Elmer, Waltham, Mass., USA) using horseradish peroxidase-labelled secondary antibodies. Equal amounts of protein loading were confirmed by restaining the membranes with antibodies against β-actin, p38 MAPK or p44/42 MAPK for cytosolic extracts or with histone H2B for nuclear extracts. Band intensities were quantified using a densitometer (Quantity One, Bio-Rad). Reverse transcriptase-polymerase chain reaction Total RNA (1 μg) was used for the RT reaction using the GeneAmp RNA PCR kit (Applied Biosystems, Foster City, Calif., USA). Total cDNA was then used in PCR reactions containing gene specific primers [Electronic supplementary material (ESM) Table 1] paired with Quantum 18S rRNA internal standards (Ambion, Austin, Tex., USA). Multiplex PCR reactions were performed in a GeneAmp 9700 (Applied Biosystems). […] The densities of amplified products corresponding to specific genes and 18S rRNA were quantified with Quantity One software (Bio-Rad). Results are expressed as the means of the ratios of Tgfb1, Ctgf or Ager band densities to the 18S rRNA band density.
# [3] = ZDF rats, LR-90 50 mg/l in drinking water, at 40 weeks of age, mean ± SEM
structure (smiles),measurement,setting,value
"CC(C)(Oc1ccc(NC(=O)Nc2ccc(Cc3ccc(NC(=O)Nc4ccc(OC(C)(C)C(=O)O)cc4)c(Cl)c3)cc2Cl)cc1)C(=O)O [LR-90, methylene bis[4,4′-(2-chlorophenylureidophenoxyisobutyric acid)]]",effect on blood pressure,"[1]; ZDF rats, Example 1","modest, but not statistically significant effects"
same,effect on hyperglycaemia,"[1]; ZDF rats, Example 1","modest, but not statistically significant effects"
same,Plasma Cholesterol,[1]; [3],6.3 ± 0.3 mmol/L
same,Plasma Triglycerides,[1]; [3],4.4 ± 0.6 mmol/L
same,Plasma glucose,[1]; [3],25.0 ± 2.3 mmol/L
same,Mean Systolic BP,"[1]; ZDF rats, LR-90 50 mg/l in drinking water, at 40 weeks of age, tail-cuff, mean ± SEM",144 ± 6 mm Hg
same,reduction of plasma cholesterol,"[1]; vs untreated ZDF rats, p<0.05",~30%
same,reduction of plasma triacylglycerol,"[1]; vs untreated ZDF rats, p<0.05",~55%
same,activation of NF-κB (p65 subunit),"[2]; kidney nuclear extracts of ZDF rats, p<0.01",significantly attenuated
same,activation of p44/42 MAPK,"[2]; renal cortex of ZDF rats, p<0.01",significantly attenuated
same,activation of p38 MAPK,"[2]; renal cortex of ZDF rats, p<0.05",significantly attenuated
